Results from patent US10266523B2, “Crystaline forms of N-[6-(cis-2,6-dimethylmorpholine-4-yl)pyridine-3-yl]-2-Methyl-4′-(trifluoromethoxy) [1,1′-biphenyl]-3-Methanamide monophosphate, and process of preparation thereof” (CRYSTAL PHARMATECH CO., LTD., priority 2015, dated 2019).
Entries after “also recorded” stand apart in the source; their conditions may differ. Where two headings read alike, the source gives them in different places.

Tests used:
[1] = cited from earlier work
[2] = Solid-state storage stability, form change detected by XRPD; format: physicochemical; conditions: 120 days
Excerpt: The samples after storage were detected by XRPD.

[3] = Stability of crystalline forms in water and simulated biological media (saturated solution, XRPD of solid); format: physicochemical; conditions: for Final form: SGF, listed as Crystalline Form A of monophosphate
Experimental: After being equilibrated for 1 hour, 4 hours and 24 hours, a small amount solid of each saturated solution was carried out for XRPD test, the testing result is shown in table 9, and the XRPD contrast diagram after 1 hour is shown in FIG. 9, wherein a is starting form of diphosphonate, b is monophosphate Form B of the present disclosure, c is the crystalline form of the diphosphonate after 1 hour in water, d is the crystalline form of the diphosphonate after 1 hour in SGF, e is the crystalline form of the diphosphonate after 1 hour in the FaSSIF, and f is the crystalline form of the diphosphonate after 1 hour in FeSSIF.

[4] = Particle size distribution test (Microtrac S3500 laser particle size analyzer, wet process); format: physicochemical; conditions: for MV (average particle size calculated by volume): dispersion medium Isopar G; for D10 / D50 / D90: volume distribution, Isopar G
Experimental: The particle size distribution test in the present disclosure is acquired by the S3500 laser particle size analyzer of Microtrac. Microtrac S3500 is equipped with the Sample Delivery Controller. The test is carried out by wet process, and the dispersion medium is Isopar G The parameters are as follow: [table] 10-30 mg sample was dispersed with 10 mL Isopar G (containing 0.2% of lecithin). The sample is added into the SDC sample injection system when fully mixed. Start the experiment when the sample amount indication chart reaches a proper position. The result of particle size distribution test is shown in table 13, the particle size distribution diagram of the Form A is shown in FIG. 10, and the particle size distribution diagram of the Form B of monophosphate is shown in FIG. 11.

[5] = Hygroscopicity assessment by dynamic vapor sorption (DVS); format: physicochemical; conditions: 25° C.; for Weight Gain at 80% Relative Humidity: DVS, 10 mg
Experimental: Dynamic Vapor Sorption (DVS) is measured via a SMS (Surface Measurement Systems) DVS Intrinsic, using 10 mg of crystalline form. Typical Parameters for DVS test are listed below: Temperature: 25° C. Gas and flow rate: N2, 200 mL/min dm/dt: 0.002%/min RH range: 0% RH to 95% RH Stable duration: 10 min Maximum equilibrate time: 180 min Humidity gradient: 10%(0% RH-90% RH), 5%(90% RH-95% RH), Hygroscopicity of 10 mg of monophosphate Form A of compound of formula (I) was tested using dynamic vapor sorption (DVS). About hygroscopicity characterization description and definition of hygroscopicity (Chinese Pharmacopoeia 2010 edition appendix XIXJ Drug hygroscopic test guidelines, test at 25° C.+/−1° C., 80% Relative Humidity) • deliquescent: sufficient water is absorbed to form a liquid. • very hygroscopic: increase in mass is equal to or greater than 15%. • hygroscopic: increase in mass is less than 15% and equal to or greater than 2%. • slightly hygroscopic: increase in mass is less than 2% and equal to or greater than 0.2%. • no or almost no hygroscopic: increase in mass is less than 0.2%.

[6] = listed as Crystalline Form B of monophosphate
[7] = listed as Crystalline Form A of monophosphate

## Cc1c(C(=O)Nc2ccc(N3C[C@@H](C)O[C@@H](C)C3)nc2)cccc1-c1ccc(OC(F)(F)F)cc1.O=P(O)(O)O.O=P(O)(O)O [Diphosphonate in CN102159570, reference compound]
[1]; 50° C./75% RH, 2 weeks
  XRPD of the crystalline form after storage: slightly changed
[1]; 80° C./75% RH, two weeks
  XRPD of the crystalline form after storage: changed
[2]; 5° C.
  Form Change: Diphosphonate
[2]; 25° C./60% RH
  Form Change: Diphosphonate
[2]; 40° C./75% RH, listed as diphosphonate in CN102159570
  Form Change: partly changed into Form B
[3]; four media, equilibrated for 1 hour
  form conversion in media: convert into Form B of monophosphate

## Cc1c(C(=O)Nc2ccc(N3CC(C)OC(C)C3)nc2)cccc1-c1ccc(OC(F)(F)F)cc1 (stereo not drawn) [Form B, N-[6-(cis-2,6-dimethylmorpholine-4-yl)pyridine-3-yl]-2-methyl-4′-(trifluoromethoxy) [1,1′-biphenyl]-3-carboxamide monophosphate]
[2]; 5° C.
  Form Change: Form B
[2]; 25° C./60% RH
  Form Change: Form B
[2]; 40° C./75% RH
  Form Change: remains unchanged; also recorded: Form B
[4]
  particle size homogeneity and dispersion: homogeneous particle size and good dispersion
[4]; [6]
  MV (average particle size calculated by volume): 55.4 um
  D10: 8.8 um
  D50: 37.5 um
  D90: 124.2 um
[3]; all of the four kinds of media (water, SGF, FaSSIF, FeSSIF)
  stability of crystalline form in media: do not change

## Cc1c(C(=O)Nc2ccc(N3CC(C)OC(C)C3)nc2)cccc1-c1ccc(OC(F)(F)F)cc1 (stereo not drawn) [Form A, N-[6-(cis-2,6-dimethylmorpholine-4-yl)pyridine-3-yl]-2-methyl-4′-(trifluoromethoxy) [1,1′-biphenyl]-3-carboxamide monophosphate]
[5]; 80% Relative Humidity
  hygroscopicity class (Chinese Pharmacopoeia 2010 definition): slightly hygroscopic (increase in mass is less than 2% and equal to or greater than 0.2%)
[5]
  Weight Gain at 80% Relative Humidity: 0.59%
[5]; listed as monophosphate Form A
  Weight Gain at 80% Relative Humidity: 0.59%
[2]; 5° C.
  Form Change: Form A
[2]; 25° C./60% RH
  Form Change: Form A
[2]; 40° C./75% RH
  Form Change: Form A and Form B
[4]
  particle size homogeneity and dispersion: homogeneous particle size and good dispersion
[4]; [7]
  MV (average particle size calculated by volume): 136.5 um
  D10: 22.7 um
  D50: 100.2 um
  D90: 305.2 um
[3]; equilibrium time 1 h
  Final form: Changed
[3]; equilibrium time 4 h
  Final form: Changed
[3]; equilibrium time 24 h
  Final form: Changed
[3]; water, FaSSIF and FeSSIF, after 1, 4, and 24 hours
  stability of crystalline form in media: stable
